According to US20150352142A1, “STABILIZED COMPOSITIONS COMPRISING HYALURONIC ACID” (Carbylan Therapeutics, Inc., priority 2013, published 2015):

How the values were obtained:
Assay type in all cases: physicochemical
[1] = Effect of sucrose on HA viscosity at 55° C. (Example 3); details: HA solution
Description: 6.9 g of HA (Lifecore, 888 KDa) was dissolved in 881 mL of 0.9% NaCl overnight. The dissolved HA was sterile filtered with 0.2 um filter (Millipore, Opticap 4″). 3.97 mL of 1 M Sodium Phosphate, pH 6.71 was added to the HA solution. Then 135.3 mg of USP grade Triamcinolone acetonide (TA) was mixed with 81.2 mL of dissolved HA in a sterile 250 mL Nalgene bottle. […] Each mixture was mixed for 1 hour. No additives were added to the control sample. For each large sample, 2±0.2 mL aliquots were placed in a sterile 4 mL glass vial which was then sealed with septum and aluminum cap. All these aliquoted samples, except the 0 hour samples, were placed in an oven set at 55° C. With the exception of the Day 0 samples, at each time point, 3 of the samples were removed from the oven and allowed to cool to room temperature. The viscosity of each sample was measured using AR550 Rheometer (TA Instrument) with 40 mm 2° steel cone at 22° C. with a 3 min time sweep. The percent retention of the HA viscosity was determined by the ratio of the viscosity (average of the 3 samples) on the specified day to that on Day 0. The stabilization ratio at Day 6 is the ratio of the percent retention of HA viscosity with the specific additive to the percent retention of HA viscosity of the sample with no additive.

[2] = Effect of sucrose on HA viscosity at 40° C. (Example 4); details: HA solution
Description: 6.9 g of HA (Lifecore, 888 KDa) was dissolved in 881 mL of 0.9% NaCl overnight. The dissolved HA was sterile filtered with 0.2 μm filter (Millipore, Opticap 4″). 3.97 mL of 1 M sodium phosphate, pH 6.71 was added to the HA solution. Then 372 mg of USP grade triamcinolone acetonide (TA) was mixed with 223.2 mL of dissolved HA in a sterile 250 mL Nalgene bottle. […] Each mixture was mixed for 1 hour. No additives were added to the control sample. For each large sample, 2±0.2 mL aliquots were placed in a sterile 4 mL glass vial which was then sealed with septum and aluminum cap. All these aliquoted samples, except the Week 0 samples, were placed in an oven set at 40° C. With the exception of the Day 0 samples, at each time point, 3 of the samples were removed from the oven and allowed to cool to room temperature. The viscosity of each sample was measured using AR550 Rheometer (TA Instrument) with 40 mm 2° steel cone at 22° C. with a 3 min time sweep. The percent retention of the HA viscosity was determined by the ratio of the viscosity (average of the 3 samples) on the specified day to that on Week 0. The stabilization ratio at Week 6 is the ratio of the percent retention of HA viscosity with the specific additive to the percent retention of HA viscosity of the sample with no additive.

[3] = Effect of sucrose on HA (730) viscosity at 55° C. (Example 11); details: HA (730 KDa) solution
Description: 4.7 g of HA (Lifecore, 730 KDa) was dissolved in 600 mL of 0.9% NaCl overnight. The dissolved HA was sterile filtered with 0.2 um filter (Millipore, Opticap 4″). 0.86 mL of 1 M Sodium Phosphate, pH 6.71 was added to 171.8 mL of the HA solution. Then 248.2 mg of USP grade Triamcinolone acetonide (TA) was mixed with 148.9 mL of dissolved HA in a sterile 250 mL Nalgene bottle. […] Each mixture was mixed for 1 hour. No additives were added to the control sample. For each large sample, 2±0.2 mL aliquots were placed in a sterile 4 mL glass vial which was then sealed with septum and aluminum cap. All these aliquoted samples, except the 0 hour samples, were placed in an oven set at 55° C. With the exception of the 0 hour samples, at each time point (Day 1, Day 3 and Day 7), 3 of the samples were removed from the oven and allowed to cool to room temperature. The viscosity of each sample was measured using AR550 Rheometer (TA Instrument) with 40 mm 2° steel cone at 22° C. with a 3 min time sweep. The percent retention of the HA viscosity was determined by the ratio of the viscosity (average of the 3 samples) on the specified day to that on Day 0.

[4] = Effect of additives on HA viscosity at 60° C., HA/TA (Example 16); details: HA solution
Description: Then 344.3 mg of USP grade Triamcinolone Acetonide (TA) was mixed with 206.6 mL of dissolved HA in a sterile 250 mL Nalgene bottle. […] No additives were added to the control sample. For each large sample, 2±0.2 mL aliquots were placed in a sterile 4 mL glass vial which was then sealed with septum and aluminum cap. All these aliquoted samples, except the 0 hour samples, were placed in an oven set at 60° C. With the exception of the Day 0 samples, at each time point (Day 1, Day 3 and Day 7), 3 of the samples were removed from the oven and allowed to cool to room temperature. […] The percent retention of the HA viscosity was determined by the ratio of the viscosity (average of the 3 samples) on the specified day to that on Day 0.

[5] = Effect of sucrose on HA viscosity at 80° C. (Example 1B); details: HA solution
Description: 6.9 g of hyaluronic acid, HA (Lifecore, 888 KDa) was dissolved in 881 mL of 0.9% NaCl overnight. The dissolved HA was sterile filtered with 0.2 μm filter (Millipore, Opticap 4″). 3.97 mL of 1 M sodium phosphate, pH 6.71 was added to the HA solution. Then 372 mg of USP grade triamcinolone acetonide (TA) was mixed with 223.2 mL of dissolved HA in a sterile 250 mL Nalgene bottle. […] Each mixture was mixed for 1 hour. No additives were added to the control sample. For each large sample, 2±0.2 mL aliquots were placed in a sterile 4 mL glass vial which was then sealed with septum and aluminum cap. All these aliquoted samples, except the 0 hour samples, were placed in an oven set at 80° C. With the exception of the 0 hour samples, at each time point, 3 of the samples were removed from the oven and allowed to cool to room temperature. The viscosity of each sample was measured using AR550 Rheometer (TA Instrument) with 40 mm 2° steel cone at 22° C. with a 3 min time sweep. The percent retention of the HA viscosity was determined by the ratio of the viscosity (average of the 3 samples) on the specified day to that on 0 hour. The stabilization ratio at 30 hours is the ratio of the percent retention of HA viscosity with the specific additive to the percent retention of HA viscosity of the sample with no additive.

[6] = Effect of sucrose on HA viscosity at 60° C. (Example 2); details: HA solution
Description: 6.9 g of HA (Lifecore, 888 KDa) was dissolved in 881 mL of 0.9% NaCl overnight. The dissolved HA was sterile filtered with 0.2 μm filter (Millipore, Opticap 4″). 3.97 mL of 1 M Sodium Phosphate, pH 6.71 was added to the HA solution. Then 372 mg of USP grade triamcinolone acetonide (TA) was mixed with 223.2 mL of dissolved HA in a sterile 250 mL Nalgene bottle. […] Each mixture was mixed for 1 hour. No additives were added to the control sample. For each large sample, 2±0.2 mL aliquots were placed in a sterile 4 mL glass vial which was then sealed with septum and aluminum cap. All these aliquoted samples, except the 0 hour samples, were placed in an oven set at 60° C. With the exception of the Day 0 samples, at each time point, 3 of the samples were removed from the oven and allowed to cool to room temperature. The viscosity of each sample was measured using AR550 Rheometer (TA Instrument) with 40 mm 2° steel cone at 22° C. with a 3 min time sweep. The percent retention of the HA viscosity was determined by the ratio of the viscosity (average of the 3 samples) on the specified day to that on Day 0. The stabilization ratio at Day 6 is the ratio of the percent retention of HA viscosity with the specific additive to the percent retention of HA viscosity of the sample with no additive.

[7] = Effect of additives on HA viscosity at 60° C., HA/TA (Example 17); details: HA solution
Description: 3.92 g of HA (Shiseido, IV=2 m^3/kg) was dissolved in 500 mL of 0.9% NaCl overnight. The dissolved HA was sterile filtered with 0.2 um filter (Millipore, Opticap 4″). 2.16 mL of 1 M Sodium Phosphate, pH 6.71 was added to the HA solution. Then 344.3 mg of USP grade Triamcinolone Acetonide (TA) was mixed with 206.6 mL of dissolved HA in a sterile 250 mL Nalgene bottle. […] No additives were added to the control sample. For each large sample, 2±0.2 mL aliquots were placed in a sterile 4 mL glass vial which was then sealed with septum and aluminum cap. All these aliquoted samples, except the 0 hour samples, were placed in an oven set at 60° C. With the exception of the Day 0 samples, at each time point (Day 1, Day 3 and Day 6), 3 of the samples were removed from the oven and allowed to cool to room temperature. The viscosity of each sample was measured using AR550 Rheometer (TA Instrument) with 40 mm 2° steel cone at 22° C. with a 3 min time sweep. The percent retention of the HA viscosity was determined by the ratio of the viscosity (average of the 3 samples) on the specified day to that on Day 0. The stabilization ratio at Day 6 is the ratio of the percent retention of HA viscosity with the specific additive to the percent retention of HA viscosity of the sample with no additive.

[8] = Effect of sucrose on HA (880) viscosity at 55° C. (Example 10); details: HA (880 KDa) solution
Description: 4.7 g of HA (Lifecore, 880 KDa) was dissolved in 600 mL of 0.9% NaCl overnight. The dissolved HA was sterile filtered with 0.2 um filter (Millipore, Opticap 4″). 0.84 mL of 1 M Sodium Phosphate, pH 6.71 was added to 167.51 mL of the filtered HA solution. Then 248.4 mg of USP grade Triamcinolone acetonide (TA) was mixed with 144.2 mL of dissolved HA in a sterile 250 mL Nalgene bottle. […] Each mixture was mixed for 1 hour. No additives were added to the control sample. For each large sample, 2±0.2 mL aliquots were placed in a sterile 4 mL glass vial which was then sealed with septum and aluminum cap. All these aliquoted samples, except the 0 hour samples, were placed in an oven set at 55° C. With the exception of the 0 hour samples, at each time point (Day 1, Day 3 and Day 7), 3 of the samples were removed from the oven and allowed to cool to room temperature. The viscosity of each sample was measured using AR550 Rheometer (TA Instrument) with 40 mm 2° steel cone at 22° C. with a 3 min time sweep. The percent retention of the HA viscosity was determined by the ratio of the viscosity (average of the 3 samples) on the specified day to that on Day 0.

[9] = Specific viscosity retention of crosslinked HA hydrogel/HA solution formulation with and without TA, stored at 25° C. (Example 1A)
[10] = Effect of additives on HA viscosity at 60° C., HA/triamcinolone hexacetonide (Example 18); details: HA solution
Description: 19.6 g of HA (Shiseido, IV=2 m^3/kg) was dissolved in 2.5 L of 0.9% NaCl overnight. The dissolved HA was sterile filtered with 0.2 um filter (Millipore, Opticap 4″). 1.15 mL of 1 M Sodium Phosphate, pH 6.71 was added to 228.9 mL of the HA solution. Then 334.9 mg of USP grade Triamcinolone hexacetonide(TH) was mixed with 200.95 mL of dissolved HA in a sterile 250 mL Nalgene bottle. […] Each mixture was mixed for 1 hour. No additives were added to the control sample. For each large sample, 2±0.2 mL aliquots were placed in a sterile 4 mL glass vial which was then sealed with septum and aluminum cap. All these aliquoted samples, except the Day 0 samples, were placed in an oven set at 60° C. With the exception of the Day 0 samples, at each time point, 3 of the samples were removed from the oven and allowed to cool to room temperature. The viscosity of each sample was measured using AR550 Rheometer (TA Instrument) with 40 mm 2° steel cone at 22° C. with a 3 min time sweep. The percent retention of the HA viscosity was determined by the ratio of the viscosity (average of the 3 samples) on the specified day to that on Day 0. The stabilization ratio at Day 6 is the ratio of the percent retention of HA viscosity with the specific additive to the percent retention of HA viscosity of the sample with no additive.

Structure (SMILES) | effect of presence of corticosteroid on HA viscosity vs HA without it (in words) [1] | effect of presence of corticosteroid on HA viscosity vs HA without it (in words) [2] | effect of presence of corticosteroid on HA viscosity vs HA without it (in words) [3] | effect of presence of corticosteroid on HA viscosity vs HA without it (in words) [4] | effect of presence of corticosteroid on HA viscosity vs HA without it (in words) [5] | effect of presence of corticosteroid on HA viscosity vs HA without it (in words) [6] | effect of presence of corticosteroid on HA viscosity vs HA without it (in words) [7] | effect of presence of corticosteroid on HA viscosity vs HA without it (in words) [8] | effect of presence of corticosteroid on HA viscosity vs same formulation without it (in words) [9] | effect of presence of corticosteroid on HA viscosity vs HA without it (in words) [10]
CC1(C)O[C@@H]2C[C@H]3[C@@H]4CCC5=CC(=O)C=C[C@]5(C)[C@@]4(F)[C@@H](O)C[C@]3(C)[C@]2(C(=O)CO)O1 [TA, triamcinolone acetonide] | increased degradation of the HA | increased degradation of the HA | increased decrease in the viscosity of the HA | increased degradation of the HA | increased degradation of the HA | increased degradation of the HA | increased degradation of the HA | increased decrease in the viscosity of the HA | decreased more rapidly over time | 
CC(C)(C)CC(=O)OCC(=O)[C@@]12OC(C)(C)O[C@@H]1C[C@H]1[C@@H]3CCC4=CC(=O)C=C[C@]4(C)[C@@]3(F)[C@@H](O)C[C@@]12C [triamcinolone hexacetonide, Triamcinolone hexacetonide] |  |  |  |  |  |  |  |  |  | decrease in the viscosity of the HA
